From US9187472B2 (AbbVie Inc., priority 2012, dated 2015) come the findings set out here.

Assay [1] concerns the target NAMPT (human, recombinant, C-terminally His-tagged) (Homo sapiens, UniProt P43490). The experiment in a line: Time-Resolved Fluorescence Resonance Energy Transfer (TR-FRET) Binding Assay of NAMPT. The note with it: without substrates; 6.8 nM NAMPT, 200 nM probe, 3 hours equilibration. A digest of the protocol:
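Compounds, diluted in half-log steps, are mixed with enzyme (6.8 nM), fluorescent probe (200 nM) and Tb-anti-His antibody (1 nM) in pH 7.5 HEPES buffer containing 10 mM MgCl2 and 1 mM DTT. Plates equilibrate 3 h at room temperature; normalized FRET ratios are fitted by four-parameter logistic regression for IC50.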
Background: TR-FRET usually uses a lanthanide donor and a delayed reading to cut background.

For the next assay, the target named is NAMPT (Homo sapiens, UniProt P43490). The assay is described as follows: TR-FRET Binding Assay of NAMPT with PRPP. The conditions noted are these: with 200 μM PRPP and 2.5 mM ATP; 2 nM NAMPT, 2 nM probe, 16 hours equilibration. In outline:
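Compounds were mixed with 2 nM His-tagged NAMPT, 2 nM probe, 1 nM terbium anti-His antibody, 200 μM PRPP and 2.5 mM ATP in assay buffer with 2% DMSO, then left 16 hours to permit possible enzymatic processing of compounds before time-resolved FRET was measured.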

The test system of the next assay is PC3 cells. The assay is described as follows: NAMPT Cell Proliferation Assay. The note with it: Homo sapiens, PC-3, 120 h, 5 days incubation, cell viability by Cell Titer Glo. It counts as cell-based. In outline: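 Cell Titer Glo viability after 5-day exposure (37° C, 5% CO2); PC3, 500 cells/well, RPMI + 10% heat-inactivated FBS, overnight attachment before dosing. Dose range 10 μM to 1×10^−5 μM, 10-fold steps. IC50 = sigmoidal fit of % inhibition.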
Background: ATP-based viability assays read luminescence as a measure of living cells.

Usually IC50 stands for the midpoint of a concentration-inhibition curve.

Sequence of NAMPT (P43490 whole entry): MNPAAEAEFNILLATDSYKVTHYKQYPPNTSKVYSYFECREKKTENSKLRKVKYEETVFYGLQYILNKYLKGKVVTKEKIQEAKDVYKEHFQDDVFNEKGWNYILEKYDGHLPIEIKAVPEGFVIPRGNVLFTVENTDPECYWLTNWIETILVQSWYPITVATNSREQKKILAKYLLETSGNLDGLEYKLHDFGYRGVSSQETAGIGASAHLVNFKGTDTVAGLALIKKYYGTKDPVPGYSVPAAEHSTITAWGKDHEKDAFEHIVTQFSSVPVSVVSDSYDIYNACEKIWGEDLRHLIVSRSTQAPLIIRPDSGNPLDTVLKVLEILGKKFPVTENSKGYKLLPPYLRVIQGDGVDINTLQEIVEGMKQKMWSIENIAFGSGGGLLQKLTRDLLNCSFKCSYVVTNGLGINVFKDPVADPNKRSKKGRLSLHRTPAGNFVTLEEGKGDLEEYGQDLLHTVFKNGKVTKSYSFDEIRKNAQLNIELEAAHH
Sequence of NAMPT (human, recombinant, C-terminally His-tagged) (P43490 whole entry): as above

For `Cn1cccc1CCC(=O)N(CC1CCCO1)c1ncc(C(=O)NCc2ccc3nccn3c2)s1` (stereo not drawn) [Example 189, N-(imidazo[1,2-a]pyridin-6-ylmethyl)-2-{[3-(1-methyl-1H-pyrrol-2-yl)propanoyl](tetrahydrofuran-2-ylmethyl)amino}-1,3-thiazole-5-carboxamide], the IC50 was 192 nM in assay [1], 11.1 nM on NAMPT and 29.3 nM in the assay with PC3 cells.

For the compound `Cc1cc(CC(=O)N(CC2CCCO2)c2ncc(C(=O)NCc3ccc4nccn4c3)s2)nn1C` (stereo not drawn) [Example 190, 2-{[(1,5-dimethyl-1H-pyrazol-3-yl)acetyl](tetrahydrofuran-2-ylmethyl)amino}-N-(imidazo[1,2-a]pyridin-6-ylmethyl)-1,3-thiazole-5-carboxamide], the IC50 came out at 400 nM in assay [1], 4.57 nM on NAMPT and 14.9 nM with PC3 cells.

Consider `O=C(NCc1ccc2nccn2c1)c1cnc(N(CC2CCCO2)C(=O)Cc2cscn2)s1` (stereo not drawn) [Example 191, N-(imidazo[1,2-a]pyridin-6-ylmethyl)-2-[(tetrahydrofuran-2-ylmethyl)(1,3-thiazol-4-ylacetyl)amino]-1,3-thiazole-5-carboxamide], for which the IC50 in assay [1] turned out to be 821 nM; on NAMPT, 6.09 nM; in the assay on PC3 cells, 14.3 nM.

Take `O=C(NCc1ccn2ccnc2c1)c1cnc(N(C[C@H]2CCCO2)C(=O)Cc2ccon2)s1` [Example 192, N-(imidazo[1,2-a]pyridin-7-ylmethyl)-2-{(1,2-oxazol-3-ylacetyl)[(2R)-tetrahydrofuran-2-ylmethyl]amino}-1,3-thiazole-5-carboxamide]: the IC50 worked out at 238 nM in assay [1], 0.242 nM at NAMPT and 1.85 nM in the assay with PC3 cells.

Consider `Cc1cc(CC(=O)N(C[C@H]2CCCO2)c2ncc(C(=O)NCc3ccn4ccnc4c3)s2)no1` [Example 193, N-(imidazo[1,2-a]pyridin-7-ylmethyl)-2-{[(5-methyl-1,2-oxazol-3-yl)acetyl][(2R)-tetrahydrofuran-2-ylmethyl]amino}-1,3-thiazole-5-carboxamide], for which the results for the IC50 (in assay [1]; at NAMPT; in the assay with PC3 cells) were 516 nM, 0.266 nM and 19.9 nM, respectively.

As to `O=C(NCc1ccn2ccnc2c1)c1cnc(N(C[C@H]2CCCO2)C(=O)CCc2ccno2)s1` [Example 194, N-(imidazo[1,2-a]pyridin-7-ylmethyl)-2-{[3-(1,2-oxazol-5-yl)propanoyl][(2R)-tetrahydrofuran-2-ylmethyl]amino}-1,3-thiazole-5-carboxamide], the IC50 in assay [1] is 32.3 nM; at NAMPT it was 0.24 nM; in the assay with PC3 cells, 0.773 nM.

Regarding `O=C(NCc1ccn2ccnc2c1)c1cnc(N(C[C@H]2CCCO2)C(=O)CCc2cnoc2)s1` [Example 195, N-(imidazo[1,2-a]pyridin-7-ylmethyl)-2-{[3-(1,2-oxazol-4-yl)propanoyl][(2R)-tetrahydrofuran-2-ylmethyl]amino}-1,3-thiazole-5-carboxamide], the IC50 amounted to 24.7 nM in assay [1], 0.251 nM on NAMPT and 0.966 nM with PC3 cells.

On to `O=C(NCc1ccn2ccnc2c1)c1cnc(N(C[C@H]2CCCO2)C(=O)Cc2cscn2)s1` [Example 196, N-(imidazo[1,2-a]pyridin-7-ylmethyl)-2-{[(2R)-tetrahydrofuran-2-ylmethyl](1,3-thiazol-4-ylacetyl)amino}-1,3-thiazole-5-carboxamide], for which the IC50 stood at 358 nM in assay [1], 0.169 nM on NAMPT and 6.75 nM in the assay on PC3 cells.

As to `Cc1cc(CC(=O)N(C[C@H]2CCCO2)c2ncc(C(=O)NCc3ccn4ccnc4c3)s2)nn1C` [Example 197, 2-{[(1,5-dimethyl-1H-pyrazol-3-yl)acetyl][(2R)-tetrahydrofuran-2-ylmethyl]amino}-N-(imidazo[1,2-a]pyridin-7-ylmethyl)-1,3-thiazole-5-carboxamide], the IC50 was 1570 nM in assay [1], 0.505 nM at NAMPT and 25.4 nM in the assay with PC3 cells.

On to `Cn1cc(CCC(=O)N(C[C@H]2CCCO2)c2ncc(C(=O)NCc3ccn4ccnc4c3)s2)cn1` [Example 198, N-(imidazo[1,2-a]pyridin-7-ylmethyl)-2-{[3-(1-methyl-1H-pyrazol-4-yl)propanoyl][(2R)-tetrahydrofuran-2-ylmethyl]amino}-1,3-thiazole-5-carboxamide], for which the IC50 in assay [1] came out at 32.5 nM; at NAMPT, 0.225 nM; in the assay on PC3 cells, 1.84 nM.

In the case of `Cc1noc(C)c1CC(=O)N(C[C@H]1CCCO1)c1ncc(C(=O)NCc2ccn3ccnc3c2)s1` [Example 199, 2-{[(3,5-dimethyl-1,2-oxazol-4-yl)acetyl][(2R)-tetrahydrofuran-2-ylmethyl]amino}-N-(imidazo[1,2-a]pyridin-7-ylmethyl)-1,3-thiazole-5-carboxamide], the concentration for half-maximal inhibition (IC50) turned out to be 9.76 nM in assay [1], 0.311 nM on NAMPT and 0.539 nM with PC3 cells.

`O=C(NCc1ccc2nccn2c1)c1ccc(-c2cnn(CC3CCOC3)c2)s1` (stereo not drawn) [Example 200, N-(imidazo[1,2-a]pyridin-6-ylmethyl)-5-[1-(tetrahydrofuran-3-ylmethyl)-1H-pyrazol-4-yl]thiophene-2-carboxamide]: the IC50 in assay [1] was 63 nM; on NAMPT it was 0.482 nM; in the assay on PC3 cells, 5.72 nM.

For `O=C(NCc1ccc2nccn2c1)c1ccc(-c2cnn(CC3CCOCC3)c2)s1` [Example 201, N-(imidazo[1,2-a]pyridin-6-ylmethyl)-5-[1-(tetrahydro-2H-pyran-4-ylmethyl)-1H-pyrazol-4-yl]thiophene-2-carboxamide], the IC50 worked out at 46.6 nM in assay [1], 0.281 nM at NAMPT and 1.89 nM in the assay on PC3 cells.

In the case of `Cn1cc(CC(=O)N(C[C@H]2CCCO2)c2ncc(C(=O)NCc3ccn4ccnc4c3)s2)cn1` [Example 202, N-(imidazo[1,2-a]pyridin-7-ylmethyl)-2-{[(1-methyl-1H-pyrazol-4-yl)acetyl][(2R)-tetrahydrofuran-2-ylmethyl]amino}-1,3-thiazole-5-carboxamide], the IC50 stood at 216 nM in assay [1], 0.355 nM on NAMPT and 4.88 nM in the assay with PC3 cells.

In the case of `Cn1cccc1CCC(=O)N(C[C@H]1CCCO1)c1ncc(C(=O)NCc2ccn3ccnc3c2)s1` [Example 203, N-(imidazo[1,2-a]pyridin-7-ylmethyl)-2-{[3-(1-methyl-1H-pyrrol-2-yl)propanoyl][(2R)-tetrahydrofuran-2-ylmethyl]amino}-1,3-thiazole-5-carboxamide], the IC50 in assay [1] was 13.7 nM; at NAMPT, 0.21 nM; with PC3 cells it was 2.39 nM.

As for `CC(C)(O)Cn1cc(-c2ncc(C(=O)NCc3ccn4ccnc4c3)s2)cn1` [Example 204, 2-[1-(2-hydroxy-2-methylpropyl)-1H-pyrazol-4-yl]-N-(imidazo[1,2-a]pyridin-7-ylmethyl)-1,3-thiazole-5-carboxamide], the half-maximal inhibitory concentration (IC50) turned out to be 4830 nM in assay [1], 0.773 nM on NAMPT and 1620 nM with PC3 cells.

Consider `CC(C)Cn1cc(-c2ncc(C(=O)NCc3ccn4ccnc4c3)s2)cn1` [Example 205, N-(imidazo[1,2-a]pyridin-7-ylmethyl)-2-[1-(2-methylpropyl)-1H-pyrazol-4-yl]-1,3-thiazole-5-carboxamide], for which the 50% inhibitory concentration (IC50) turned out to be 1060 nM in assay [1], 0.358 nM at NAMPT and 483 nM in the assay with PC3 cells.

For the compound `O=C(NCc1ccc2nccn2c1)c1ccc(-c2cnn(CC3CCCOC3)c2)s1` (stereo not drawn) [Example 206, N-(imidazo[1,2-a]pyridin-6-ylmethyl)-5-[1-(tetrahydro-2H-pyran-3-ylmethyl)-1H-pyrazol-4-yl]thiophene-2-carboxamide], the values for the IC50 (in assay [1]; on NAMPT; in the assay with PC3 cells) were 25.7 nM, 0.263 nM and 1.31 nM, respectively.

On to `CC(C)(C)OC(=O)Nc1ccc(C(=O)NCc2ccn3ccnc3c2)cc1` [Example 207, tert-butyl {4-[(imidazo[1,2-a]pyridin-7-ylmethyl)carbamoyl]phenyl}carbamate], for which the IC50 in assay [1] turned out to be 1510 nM; at NAMPT it was 0.282 nM; in the assay with PC3 cells it was 739 nM.

As to `O=C(CC1CCOCC1)Nc1ccc(C(=O)NCc2ccn3ccnc3c2)cc1` [Example 208, N-(imidazo[1,2-a]pyridin-7-ylmethyl)-4-[(tetrahydro-2H-pyran-4-ylacetyl)amino]benzamide], the values for the IC50 (in assay [1]; on NAMPT; with PC3 cells) were 404 nM, 0.169 nM and 84.9 nM, respectively.

As for `O=C(CC1CCCO1)Nc1ccc(C(=O)NCc2ccn3ccnc3c2)cc1` (stereo not drawn) [Example 209, N-(imidazo[1,2-a]pyridin-7-ylmethyl)-4-[(tetrahydrofuran-2-ylacetyl)amino]benzamide], the IC50 amounted to 811 nM in assay [1], 0.988 nM on NAMPT and 693 nM with PC3 cells.

In the case of `O=C(CCC1CCCO1)Nc1ccc(C(=O)NCc2ccn3ccnc3c2)cc1` (stereo not drawn) [Example 210, N-(imidazo[1,2-a]pyridin-7-ylmethyl)-4-{[3-(tetrahydrofuran-2-yl)propanoyl]amino}benzamide], the IC50 in assay [1] amounted to 469 nM; at NAMPT, 0.363 nM; with PC3 cells, 398 nM.

Take `CC(C)OCC(=O)Nc1ccc(C(=O)NCc2ccn3ccnc3c2)cc1` [Example 211, N-(imidazo[1,2-a]pyridin-7-ylmethyl)-4-{[(propan-2-yloxy)acetyl]amino}benzamide]: the concentration for half-maximal inhibition (IC50) in assay [1] amounted to 1660 nM; at NAMPT it was 0.453 nM; in the assay with PC3 cells it was 950 nM.
